According to patent US20250228835A1, “PYRIDINYLOXYPYRIDINES AND RELATED COMPOUNDS AND THEIR USE IN TREATING MEDICAL CONDITIONS” (Rectify Pharmaceuticals, Inc., priority 2024, published 2025):

Tests used:
ABCB4 WT = biological target: T1, ABCB4 WT (Homo sapiens, UniProt P21439); assay: ABCB4 WT assay: HiBit protein expression; assay type: cell-based; details: HEK-293 cells stably expressing HiBit-tagged ABCB4 WT; 24 h treatment; top concentration 30 μM; read-out: ABCB4 WT EC50, Emax
T1 construct: expressed in transfected cells
Method in brief: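 HEK-293 cells stably expressing HiBit-tagged human ABCB4 WT, treated 24 h at 37 °C with 11-dose 3-fold dilutions, top final 30 μM in 0.3% DMSO. HiBit lytic reagent luminescence read after 1 h at 25 °C; Emax and EC50 derived.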

ABCD2 WT = biological target: T2, ABCD2 WT (Homo sapiens, UniProt Q9UBJ2); assay: D2 correction dose-response assay: ABCD2 WT HiBit protein expression; assay type: cell-based; details: HEK-293/ABCD2 WT cells, 24 hours treatment, HiBit luminescence; class combines EC50 and Mean MaxAct (fold); read-out: ABCD2 WT EC50, Emax
T2 construct: expressed in transfected cells
T2 sequence (Q9UBJ2 1-740): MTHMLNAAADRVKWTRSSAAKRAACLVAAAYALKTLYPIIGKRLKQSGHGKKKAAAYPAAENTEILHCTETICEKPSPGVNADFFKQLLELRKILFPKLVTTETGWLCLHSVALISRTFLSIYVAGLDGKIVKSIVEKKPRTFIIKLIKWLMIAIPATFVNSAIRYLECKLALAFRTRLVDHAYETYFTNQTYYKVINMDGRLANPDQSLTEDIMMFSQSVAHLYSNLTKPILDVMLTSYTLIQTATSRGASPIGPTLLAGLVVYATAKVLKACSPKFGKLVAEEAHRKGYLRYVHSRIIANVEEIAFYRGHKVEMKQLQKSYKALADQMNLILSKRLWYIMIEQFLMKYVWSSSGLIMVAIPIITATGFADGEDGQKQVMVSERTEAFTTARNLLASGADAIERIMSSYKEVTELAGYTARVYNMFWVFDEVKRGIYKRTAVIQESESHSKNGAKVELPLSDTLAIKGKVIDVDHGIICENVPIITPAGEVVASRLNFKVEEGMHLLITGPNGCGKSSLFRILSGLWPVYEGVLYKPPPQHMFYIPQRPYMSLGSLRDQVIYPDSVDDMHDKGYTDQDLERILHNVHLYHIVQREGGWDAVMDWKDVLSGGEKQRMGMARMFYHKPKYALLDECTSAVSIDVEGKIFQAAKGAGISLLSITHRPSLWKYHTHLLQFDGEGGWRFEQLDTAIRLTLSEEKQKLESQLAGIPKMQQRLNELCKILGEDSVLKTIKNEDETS
Method in brief: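 HEK-293 cells stably expressing HiBit-tagged human ABCD2 WT were treated with 11 doses (3-fold dilutions, top final 30 μM, 0.3% DMSO) for 24 h at 37 °C. Expression was measured by HiBit lytic luminescence after 1 h at 25 °C, giving EC50 and Emax.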

T1 sequence (P21439 whole entry): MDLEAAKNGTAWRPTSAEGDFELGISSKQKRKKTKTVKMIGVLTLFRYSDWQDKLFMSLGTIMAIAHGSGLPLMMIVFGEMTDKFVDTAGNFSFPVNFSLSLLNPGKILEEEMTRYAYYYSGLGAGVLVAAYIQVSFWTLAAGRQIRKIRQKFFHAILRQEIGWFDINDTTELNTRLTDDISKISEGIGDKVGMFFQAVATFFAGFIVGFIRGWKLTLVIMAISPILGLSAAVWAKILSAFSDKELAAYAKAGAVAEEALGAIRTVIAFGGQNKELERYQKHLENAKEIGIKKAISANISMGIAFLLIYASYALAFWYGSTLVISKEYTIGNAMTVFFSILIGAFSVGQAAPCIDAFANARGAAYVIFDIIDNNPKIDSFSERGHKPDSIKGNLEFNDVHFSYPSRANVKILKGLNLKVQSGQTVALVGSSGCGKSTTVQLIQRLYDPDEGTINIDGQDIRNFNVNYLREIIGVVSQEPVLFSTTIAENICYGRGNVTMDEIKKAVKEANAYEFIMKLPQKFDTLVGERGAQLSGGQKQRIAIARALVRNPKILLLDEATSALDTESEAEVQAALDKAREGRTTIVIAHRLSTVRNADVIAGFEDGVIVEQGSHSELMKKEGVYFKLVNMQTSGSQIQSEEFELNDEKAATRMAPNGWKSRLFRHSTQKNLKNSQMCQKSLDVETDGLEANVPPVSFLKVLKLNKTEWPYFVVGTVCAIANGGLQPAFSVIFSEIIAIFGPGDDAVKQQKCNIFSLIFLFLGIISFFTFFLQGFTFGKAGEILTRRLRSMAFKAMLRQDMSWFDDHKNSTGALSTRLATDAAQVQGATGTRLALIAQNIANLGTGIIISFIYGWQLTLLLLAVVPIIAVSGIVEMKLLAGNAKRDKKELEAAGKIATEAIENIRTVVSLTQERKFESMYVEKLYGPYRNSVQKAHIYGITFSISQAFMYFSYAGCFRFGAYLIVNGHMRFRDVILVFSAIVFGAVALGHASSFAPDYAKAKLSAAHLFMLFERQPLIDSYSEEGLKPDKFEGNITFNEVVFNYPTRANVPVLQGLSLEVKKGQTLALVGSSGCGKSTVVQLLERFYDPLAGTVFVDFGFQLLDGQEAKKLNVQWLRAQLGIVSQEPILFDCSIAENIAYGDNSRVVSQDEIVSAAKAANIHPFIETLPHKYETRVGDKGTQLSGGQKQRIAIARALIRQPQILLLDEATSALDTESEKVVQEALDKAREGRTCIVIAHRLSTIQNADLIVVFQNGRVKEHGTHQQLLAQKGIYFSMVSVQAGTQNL

| EC50 (ABCB4 WT) | EC50 (ABCD2 WT) | SMILES |
| --- | --- | --- |
| < 25 µM | > 25 µM | Cc1cc(C2CC2)nc(C2CC2)c1Oc1nc(-c2cncc(C#N)c2)ccc1S(=O)(=O)NC1CCOCC1 [Compound I-322] |
| < 25 µM | > 25 µM | Cc1cc(C)c(Oc2nc(-n3cnc(C#N)c3)ccc2N(C)S(C)(=O)=O)c(C)c1 [Compound I-272] |
| ≥ 25 µM | 1 to 10 µM | Cc1cc(C)c(Oc2nc(-c3cc(Cl)cnc3C)ccc2NS(C)(=O)=O)c(C)n1 [Compound I-282] |
| ≥ 25 µM | 10 to 25 µM | Cc1cc(C)c(Oc2nc(N3CCN(C(=O)C4CC4)CC3)ccc2S(N)(=O)=O)c(C)c1 [Compound I-285] |
| 1 to 10 µM | 1 to 10 µM | Cc1cc(C)c(Oc2nc(N3CCC4(CN(C(=O)C5CC5)C4)C3)ccc2NS(C)(=O)=O)c(C)c1 [Compound I-25] |
| < 25 µM | 10 to 25 µM | Cc1cc(C)c(Oc2nc(-c3cncc(C#N)c3)ccc2S(N)(=O)=O)c(C)n1 [Compound I-258] |
| < 25 µM | < 1 µM | Cc1cc(C2CC2)nc(C)c1Oc1nc(-n2cnc(C#N)c2)ccc1NS(C)(=O)=O [Compound I-254] |
| < 25 µM | < 1 µM | Cc1cc(C)c(Oc2nc(-c3ccnc(C#N)c3)ccc2NS(C)(=O)=O)c(C)n1 [Compound I-239] |
| ≥ 25 µM | 10 to 25 µM | Cc1cc(C)c(Oc2nc(N3CCC(C#N)CC3)ccc2NS(C)(=O)=O)c(C)c1 [Compound I-244] |
| < 25 µM | 1 to 10 µM | Cc1cc(C)c(Oc2nc(-c3cncc(Cl)c3)ccc2NS(=O)(=O)C2CC2)c(C)n1 [Compound I-238] |
| < 1 µM | 1 to 10 µM | Cc1cc(C)c(Oc2nc(-c3cn(C)nc3C)ccc2NS(C)(=O)=O)c(C)c1 [Compound I-283] |
| ≥ 25 µM | > 25 µM | Cc1cc(C)c(Oc2nc(-c3cncc(Cl)c3)ccc2NS(=O)(=O)C(C)C)c(C)c1 [Compound I-29] |
| ≥ 25 µM | < 1 µM | Cc1cc(C)c(Oc2nc(-c3cnc(C#N)c(Cl)c3)ccc2NS(C)(=O)=O)c(C)c1 [Compound I-36] |
| ≥ 25 µM | > 25 µM | Cc1cc(C2CC2)nc(C)c1Oc1nc(-c2cncc(C#N)c2)ccc1S(C)(=N)=O (centres unmarked) [Compound I-251] |
| < 1 µM | > 25 µM | Cc1cc(C)c(Oc2nc(-c3cncc(C#N)c3)ccc2NS(=O)(=O)C2CC2)c(C)n1 [Compound I-266] |
| < 1 µM | < 1 µM | Cc1cc(C)c(Oc2nc(-c3cncc(Cl)c3)ccc2NS(C)(=O)=O)c(C2CC2)n1 [Compound I-40] |
| ≥ 25 µM | 1 to 10 µM | Cc1cc(C2CC2)nc(C)c1Oc1nc(-c2cncc(C#N)c2)ccc1NS(=O)(=O)C1CCC1 [Compound I-252] |
| < 1 µM | 1 to 10 µM | Cc1cc(C2CC2)nc(C)c1Oc1nc(-n2cc(C#N)cn2)ccc1NS(C)(=O)=O [Compound I-256] |
| < 1 µM | < 1 µM | Cc1cc(C)c(Oc2nc(-c3cncc(C#N)c3)ncc2NS(C)(=O)=O)c(C)n1 [Compound I-284] |
| ≥ 25 µM | 1 to 10 µM | Cc1cc(C)c(Oc2nc(-c3cncc(Cl)c3)cnc2NS(C)(=O)=O)c(C)n1 [Compound I-260] |
| < 1 µM | < 1 µM | Cc1cc(C)c(Oc2nc(-c3cncc(C#N)c3)ccc2S(N)(=O)=O)c(C)c1 [Compound I-280] |
| < 1 µM | 10 to 25 µM | Cc1cc(C)c(Oc2nc(-c3cncc(C#N)c3)ccc2S(C)(=N)=O)c(C)c1 (centres unmarked) [Compound I-279] |
| < 25 µM | < 1 µM | Cc1cc(C)c(Oc2nc(-c3cncc(Cl)c3)ncc2NS(C)(=O)=O)c(C)n1 [Compound I-246] |
| < 1 µM | < 1 µM | Cc1cc(C)c(Oc2nc(-c3cncc(C#N)c3)ccc2NS(=O)(=O)C2COC2)c(C)c1 [Compound I-267] |
| < 25 µM | < 1 µM | Cc1cc(C)c(Oc2nc(-n3cnc(C#N)c3)ccc2NS(C)(=O)=O)c(C)c1 [Compound I-273] |
| < 1 µM | 1 to 10 µM | CNS(=O)(=O)c1ccc(-c2cncc(C#N)c2)nc1Oc1c(C)cc(C)nc1C [Compound I-265] |

| EC50 (ABCB4 WT) | EC50 (ABCD2 WT) | SMILES |
| --- | --- | --- |
| 10 to 25 µM | 10 to 25 µM | Cc1cc(C)c(Oc2nc(N3CCN(C(=O)C4COC4)CC3)ccc2NS(C)(=O)=O)c(C)c1 [Compound I-23] |
| 1 to 10 µM | 1 to 10 µM | Cc1cc(C)c(Oc2nc(N3CCN(S(C)(=O)=O)CC3)ccc2NS(C)(=O)=O)c(C)c1 [Compound I-26] |
| 1 to 10 µM | 1 to 10 µM | Cc1cc(C)c(Oc2nc(-c3cncc(C#N)c3)ccc2NS(=O)(=O)C2CCC2)c(C)c1 [Compound I-253] |
| 1 to 10 µM | 1 to 10 µM | Cc1cc(C(F)F)nc(C2CC2)c1Oc1nc(-c2cncc(C#N)c2)ccc1S(=O)(=O)NC1COC1 [Compound I-321] |
| ≥ 25 µM | 1 to 10 µM | Cc1cc(C)c(Oc2nc(N3CCN(C(=O)OC(C)C)CC3)ccc2NS(C)(=O)=O)c(C)c1 [Compound I-32] |
| 1 to 10 µM | 1 to 10 µM | Cc1cc(C(F)F)cc(C2CC2)c1Oc1nc(-c2cncc(C#N)c2)ccc1S(=N)(=O)C1CC1 (centres unmarked) [Compound I-319] |
| 1 to 10 µM | 1 to 10 µM | Cc1cc(C)c(Oc2nc(N3CCC(C#N)C3)ccc2NS(C)(=O)=O)c(C)c1 (single isomer, unassigned) [Compound I-262] |
| < 1 µM | > 25 µM | Cc1cc(C2CC2)nc(C)c1Oc1nc(-c2cncc(C#N)c2)ccc1NS(=O)(=O)C1CC1 [Compound I-264] |
| < 1 µM | 1 to 10 µM | Cc1cc(C2CC2)nc(C2CC2)c1Oc1nc(-c2cncc(C#N)c2)ccc1S(=N)(=O)C1CC1 (centres unmarked) [Compound I-317] |
| ≥ 25 µM | > 25 µM | Cc1cnc(Oc2nc(-c3cncc(C#N)c3)ccc2NS(C)(=O)=O)c(C)c1 [Compound I-250] |
| ≥ 25 µM | 1 to 10 µM | Cc1cc(C)c(Oc2nc(-n3ccc(C#N)n3)ccc2NS(C)(=O)=O)c(C)c1 [Compound I-257] |
| < 1 µM | > 25 µM | CCS(=O)(=O)Nc1ccc(-c2cncc(C#N)c2)nc1Oc1c(C)cc(C)nc1C [Compound I-247] |
| 1 to 10 µM | 1 to 10 µM | Cc1cc(C)c(Oc2nc(N3CCC(C#N)C3)ccc2NS(C)(=O)=O)c(C)c1 (single isomer, unassigned) [Compound I-261] |
| < 1 µM | 1 to 10 µM | Cc1cc(C)c(Oc2nc(N3CCN(C(=O)C4CCC4)CC3)ccc2NS(C)(=O)=O)c(C)c1 [Compound I-24] |
| 10 to 25 µM | 10 to 25 µM | Cc1cc(C)c(Oc2nc(N3CCN(C(=O)N(C)C)CC3)ccc2NS(C)(=O)=O)c(C)c1 [Compound I-33] |
| ≥ 25 µM | 1 to 10 µM | Cc1cc(C)c(Oc2nc(-c3cncc(S(C)(=O)=O)c3)ccc2NS(C)(=O)=O)c(C)c1 [Compound I-278] |
| 10 to 25 µM | 10 to 25 µM | Cc1cc(C)c(Oc2nc(-c3cccc(C#N)n3)ccc2NS(C)(=O)=O)c(C)n1 [Compound I-241] |
| < 25 µM | 1 to 10 µM | Cc1cc(C)c(Oc2nc(-c3cncc(C#N)c3)ccc2S(C)(=N)=O)c(C)n1 (centres unmarked) [Compound I-249] |
| 1 to 10 µM | > 25 µM | Cc1cc(C)c(Oc2nc(N3CCN(C(=O)C(C)(C)C)CC3)ccc2NS(C)(=O)=O)c(C)c1 [Compound I-34] |
| ≥ 25 µM | 1 to 10 µM | Cc1cc(C2CC2)nc(C)c1Oc1nc(-n2ccc(C#N)n2)ccc1NS(C)(=O)=O [Compound I-255] |
| 1 to 10 µM | < 1 µM | Cc1cc(C)c(Oc2nc(-c3cncc(C#N)c3)ccc2S(=N)(=O)C2CC2)c(C)c1 (centres unmarked) [Compound I-245] |
| < 1 µM | > 25 µM | Cc1cc(C)c(Oc2nc(-c3cncc(C#N)c3)ccc2NS(=O)(=O)C(C)C)c(C)n1 [Compound I-276] |
| < 25 µM | > 25 µM | Cc1cc(C)c(Oc2nc(-c3cc(C#N)c[nH]c3=O)ccc2NS(C)(=O)=O)c(C)n1 [Compound I-326] |
| 10 to 25 µM | > 25 µM | CNC(=O)N1CCN(c2ccc(NS(C)(=O)=O)c(Oc3c(C)cc(C)cc3C)n2)CC1 [Compound I-27] |
| 1 to 10 µM | > 25 µM | Cc1cc(C)c(Oc2nc(-c3cncc(C#N)c3)ccc2S(=N)(=O)C2CC2)c(C)n1 (centres unmarked) [Compound I-248] |
| ≥ 25 µM | < 1 µM | Cc1cc(C)c(Oc2nc(-c3cncc(Cl)c3)cnc2NS(C)(=O)=O)c(C)c1 [Compound I-277] |
